Counter-ions that a name gives are not always drawn.
Experiments:
[1] = Cytotoxicity assay, MRC-5SV2 cells, resazurin, 3 days; format: cell-based; conditions: human, MRC-5 cells, highest concentration 64 µM
Experimental: The series of final products (13–69) was investigated in vitro on the human fetal lung fibroblast cell line MRC-5 (Table 1) to assess cytotoxicity toward normal (i.e., non-malignant) human cells. […] As explained earlier, these are important pathogens for humans or cattle (T. b. brucei) and a persistent need for new therapeutics exists for these parasites. As a part of the antiparasitic tests, cytotoxicity against primary mouse macrophages (PMMs) was also evaluated. These murine cells serve as host cells for parasites in the L. infantum assay. Therefore, the murine macrophage assay not only offers additional cytotoxicological insight but is also essential to interpreting the readout of the L. infantum assay.
(§1) The MRC-5SV2 human lung fibroblast cell line was cultured in MEM + Earle’s salts-medium, supplemented with 2 mM L-glutamine, 16.5 mM NaHCO3, and 5% inactivated fetal calf serum. For evaluating the antileishmanial activity, the L. infantum MHOM/MA(BE)/67 strain was used. This strain was maintained in a Golden hamster (Mesocricetus auratus). Amastigotes were collected from the spleen of an infected donor hamster using differential centrifugation. Primary peritoneal mouse macrophages were used as host cells and were collected 2 days after peritoneal stimulation with a 2% potato starch suspension. For the intracellular T. cruzi assays, the Tulahuen CL2 strain was used that expresses β-galactosidase. The strain was maintained in MRC-5SV2 cells in MEM medium. The T. b. brucei Squib 427 strain or T. b. rhodesiense STIB-900 strain was used for screening against the extracellular African trypanosomes. The strains were maintained in Hirumi’s Modified Iscove’s medium-9 (HMI-9), supplemented with 10% inactivated fetal calf serum. All cultures and assays were performed at 37 °C with 5% CO2.
(§2) Compound stock solutions were prepared in 100% DMSO at 20 mM. The compounds were serially pre-diluted by robotic plate production (4-fold) in DMSO followed by a further (intermediate) dilution in demineralized water to assure a final in-test DMSO concentration of <1%. Identical test plates containing 10 µL of the different concentrations of each compound were produced for the different assays. For the cytotoxicity assays, 5 concentrations per compound were tested (64–16–4–1–0.25 µM). For the parasitic assays, 10 concentrations per compound were tested, ranging from 64 µM to 0.2 nM.
Assays were performed in sterile 96-well microtiter plates, each well containing 10 µL of the watery compound dilutions together with 190 µL of MRC-5SV2 inoculum (1.5 × 10^5 cells/mL). Cell growth was compared to untreated control wells (100% cell growth) and medium-control wells (0% cell growth). After 3 days incubation, MRC-5 viability was assessed fluorimetrically after addition of 50 μL resazurin per well (final concentration of 10 µg mL^−1). After 4 h at 37 °C, fluorescence was measured (λex 550 nm, λem 590 nm). The results were expressed as % reduction in cell growth/viability compared to positive (100% growth–0% inhibition) and negative (0% growth–100% inhibition) control wells from which EC50 values (50% effective concentrations) were derived using an excel macro that calculates the interpolation of the concentrations corresponding to the flanking points, just above and just below 50% inhibition.

[2] = tested on: Trypanosoma cruzi Tulahuen CL2 strain; test: Intracellular T. cruzi assay in MRC-5 cells (β-galactosidase/CPRG, 7 days); format: cell-based; conditions: Trypanosoma cruzi, TULAHUEN, MRC5, 168 h, intracellular in MRC-5 cells
Experimental: as §1, §2
MRC-5 cells were infected in 96-well plates using a harvested T. cruzi inoculum (4 × 10^3 MRC-5 cells/well + 4 × 10^4 parasites/well) and exposed to 10 µL of the compound dilutions (200 µL/well total volume). Parasite growth determined after 7 days of incubation and compared to untreated infected controls following the addition of the substrate CPRG (chlorophenolred ß-D-galactopyranoside): 50 µL/well of a stock solution containing 15.2 mg CPRG + 250 µL Nonidet in 100 mL PBS. The absorbance was measured spectrophotometrically at 540 nm after 4 h incubation at 37 °C and EC50 values were calculated.

[3] = tested on: L. infantum MHOM/MA(BE)/67 strain; test: L. infantum intracellular amastigote assay in PMM (Giemsa, 5 days); format: cell-based, Leishmania infantum; conditions: Leishmania infantum, 120 h, amastigotes in PMM, 5 days; read-out: L. inf. (EC50)
Experimental: as §1, §2
Primary peritoneal mouse macrophages (PMMs) were prepared in RPMI-1640 medium, supplemented with 2 mM L-glutamine, 16.5 mM NaHCO3, and 5% inactivated fetal calf serum. The macrophages are infected after 48 h with spleen-derived L. infantum amastigotes (3 × 10^4 PMM + 4.5 × 10^5 parasites/well). The compounds were added after 2 h of infection. After 5 days incubation, parasite burdens (mean number of amastigotes/macrophage) were assessed microscopically after staining with a 10% Giemsa solution and EC50 values were calculated.

[4] = tested on: T. b. brucei Squib 427 strain; test: T. b. brucei growth assay (resazurin, 3 days); format: cell-based, Trypanosoma brucei brucei; conditions: Trypanosoma brucei, 72 h, 3 days; read-out: T. b. bruc. (EC50)
Experimental: as §1, §2
(§3) Parasite suspensions (1.5 × 10^4 T. b. brucei/well or 4 × 10^3 T. b. rhodesiense/well) in HMI-9 medium were exposed in a total volume of 200 µL to 10 µL of the compound dilutions Parasite growth was assessed fluorimetrically after 3 days of incubation by the addition of 50 µL resazurin per well. After 6 h (T. b. rhodesiense) or 24 h (T. b. brucei) at 37 °C, fluorescence was measured (λex 550 nm, λem 590 nm), from which viability and EC50 values could be determined.

[5] = tested on: T. b. rhodesiense STIB-900 strain; test: T. b. rhodesiense growth assay (resazurin, 3 days); format: cell-based, Trypanosoma brucei rhodesiense; conditions: Trypanosoma brucei, RHODESIENSE, 72 h, 3 days; read-out: T. b. rhod. (EC50)
Experimental: as §1, §2, §3

[6] = MRC-5SV2 human lung fibroblast cells

| SMILES | EC50 at 3 days [1, 6] | also measured |
| --- | --- | --- |
| c1ccc(-n2cc(CNCCN3CCOCC3)c(-c3ccc4c(c3)OCO4)n2)cc1 [Compound 61, N-((3-(benzo[d] [1,3]dioxol-5-yl)-1-phenyl-1H-pyrazol-4-yl)methyl)-2-morpholinoethan-1-amine dihydrochloride] | 17.1 µM |  |
| c1ccc(-n2cc(COCc3cn(-c4ccccc4)nc3-c3ccc4c(c3)OCCO4)nn2)cc1 [Compound 46, 4-(((3-(2,3-dihydrobenzo[b][1,4]dioxin-6-yl)-1-phenyl-1H-pyrazol-4-yl)methoxy)methyl)-1-phenyl-1H-1,2,3-triazole] | > 64 µM | EC50 [2]: > 64 µM; EC50 [3]: 32.5 µM; EC50 [4]: 9.04 µM; EC50 [5]: 2.18 µM |
| O=C(NCCN1CCCC1)c1cn(-c2ccccc2)nc1-c1ccc2c(c1)OCCO2 [Compound 42, 3-(2,3-dihydrobenzo[b][1,4]dioxin-6-yl)-1-phenyl-N-(2-(pyrrolidin-1-yl)ethyl)-1H-pyrazole-4-carboxamide oxalate] | 28 µM | EC50 [2]: 21.7 µM; EC50 [3]: 27.3 µM; EC50 [4]: 7.15 µM; EC50 [5]: 6.43 µM |
| CN1CCN(CCNC(=O)c2cn(-c3ccccc3)nc2-c2ccc3c(c2)OCCO3)CC1 [Compound 43, 3-(2,3-dihydrobenzo[b][1,4]dioxin-6-yl)-N-(2-(4-methylpiperazin-1-yl)ethyl)-1-phenyl-1H-pyrazole-4-carboxamide] | 19 µM |  |
| c1ccc(CCNCc2cn(-c3ccccc3)nc2-c2ccc3c(c2)OCCO3)cc1 [Compound 17, N-((3-(2,3-dihydrobenzo[b][1,4]dioxin-6-yl)-1-phenyl-1H-pyrazol-4-yl)methyl)-2-phenylethan-1-amine hydrochloride] | 0.56 µM |  |
| COc1ccc(-c2nn(-c3ccccc3)cc2CNCCc2ccncc2)cc1 [Compound 62, N-((3-(4-methoxyphenyl)-1-phenyl-1H-pyrazol-4-yl)methyl)-2-(pyridin-4-yl)ethan-1-amine hydrochloride] | 9.66 µM |  |
| COc1ccc(-c2nn(-c3ccccc3)cc2CNCCc2cccnc2)cc1 [Compound 63, N-((3-(4-methoxyphenyl)-1-phenyl-1H-pyrazol-4-yl)methyl)-2-(pyridin-3-yl)ethan-1-amine hydrochloride] | 16.4 µM |  |
| c1ccc(-n2cc(CNCCc3cccnc3)c(-c3ccc4c(c3)OCO4)n2)cc1 [Compound 58, N-((3-(benzo[d] [1,3]dioxol-5-yl)-1-phenyl-1H-pyrazol-4-yl)methyl)-2-(pyridin-3-yl)ethan-1-amine hydrochloride] | 19.4 µM |  |
| COc1ccc(-c2nn(-c3ccccc3)cc2CNCCc2ccc(F)cc2)cc1OC [Compound 67, N-((3-(3,4-dimethoxyphenyl)-1-phenyl-1H-pyrazol-4-yl)methyl)-2-(4-fluorophenyl)ethan-1-amine hydrochloride] | 1.22 µM |  |
| c1ccc(-n2cc(CNCCc3ccncc3)c(-c3ccc4c(c3)OCO4)n2)cc1 [Compound 57, N-((3-(benzo[d] [1,3]dioxol-5-yl)-1-phenyl-1H-pyrazol-4-yl)methyl)-2-(pyridin-4-yl)ethan-1-amine hydrochloride] | 4 µM |  |
| Fc1ccc(Cc2cn(-c3ccccc3)nc2-c2ccc3c(c2)OCCO3)cc1 [Compound 51, 3-(2,3-dihydrobenzo[b][1,4]dioxin-6-yl)-4-(4-fluorobenzyl)-1-phenyl-1H-pyrazole] | > 64 µM |  |
| Fc1ccc(CCNCc2cn(-c3ccccc3)nc2-c2ccc3c(c2)OCO3)cc1 [Compound 56, N-((3-(benzo[d] [1,3]dioxol-5-yl)-1-phenyl-1H-pyrazol-4-yl)methyl)-2-(4-fluorophenyl)ethan-1-amine hydrochloride] |  | EC50 at 3 days [1]: 6.65 µM |
| CN1CCN(CCNCc2cn(-c3ccccc3)nc2-c2ccc3c(c2)OCCO3)CC1 [Compound 27, N-((3-(2,3-dihydrobenzo[b][1,4]dioxin-6-yl)-1-phenyl-1H-pyrazol-4-yl)methyl)-2-(4-methylpiperazin-1-yl)ethan-1-amine trihydrochloride] | 6.94 µM |  |
| c1ccc(CNCc2cn(-c3ccccc3)nc2-c2ccc3c(c2)OCCO3)cc1 [Compound 15, N-benzyl-1-(3-(2,3-dihydrobenzo[b][1,4]dioxin-6-yl)-1-phenyl-1H-pyrazol-4-yl)methanamine hydrochloride] | 5.42 µM |  |
| O=C(Nc1ccccc1)c1cn(-c2ccccc2)nc1-c1ccc2c(c1)OCCO2 [Compound 30, 3-(2,3-dihydrobenzo[b][1,4]dioxin-6-yl)-N,1-diphenyl-1H-pyrazole-4-carboxamide] | 9.19 µM |  |
| c1ccc(-n2cc(CN3CCCC3)c(-c3ccc4c(c3)OCCO4)n2)cc1 [Compound 23, 3-(2,3-dihydrobenzo[b][1,4]dioxin-6-yl)-1-phenyl-4-(pyrrolidin-1-ylmethyl)-1H-pyrazole oxalate] | 18.2 µM |  |
| Fc1ccc(CNCc2cn(-c3ccccc3)nc2-c2ccc3c(c2)OCO3)cc1 [Compound 55, 1-(3-(benzo[d] [1,3]dioxol-5-yl)-1-phenyl-1H-pyrazol-4-yl)-N-(4-fluorobenzyl)methanamine hydrochloride] | 1 µM |  |
| c1ccc(-n2cc(CNCCc3cccnc3)c(-c3ccc4c(c3)OCCO4)n2)cc1 [Compound 20, N-((3-(2,3-dihydrobenzo[b][1,4]dioxin-6-yl)-1-phenyl-1H-pyrazol-4-yl)methyl)-2-(pyridin-3-yl)ethan-1-amine hydrochloride] | 8.95 µM |  |
| CN1CCN(Cc2cn(-c3ccccc3)nc2-c2ccc3c(c2)OCCO3)CC1 [Compound 24, 1-((3-(2,3-dihydrobenzo[b][1,4]dioxin-6-yl)-1-phenyl-1H-pyrazol-4-yl)methyl)-4-methylpiperazine] | 18.2 µM |  |
| Fc1ccc(CNCc2cn(-c3ccccc3)nc2-c2ccc3c(c2)OCCO3)cc1 [Compound 16, 1-(3-(2,3-dihydrobenzo[b][1,4]dioxin-6-yl)-1-phenyl-1H-pyrazol-4-yl)-N-(4-fluorobenzyl)methanamine hydrochloride] | 6.65 µM |  |

— paper PMC11487390, “Design and Synthesis of 1,3-Diarylpyrazoles and Investigation of Their Cytotoxicity and Antiparasitic Profile” (International Journal of Molecular Sciences, 2024)
